Experimental data: patent US10189839B2, “Tricyclic imidazole compounds as inhibitors of tryptophan hydroxylase” (ACTELION PHARMACEUTICALS LTD, priority 2013, dated 2019)

Target: T1, full length human TPH1 (Homo sapiens, UniProt P17752)
T1 construct: To generate the enzyme, full length human TPH1 is cloned into the plasmid pET20b(+); made in house; host or cells: E. coli
T1 sequence (P17752 1-444): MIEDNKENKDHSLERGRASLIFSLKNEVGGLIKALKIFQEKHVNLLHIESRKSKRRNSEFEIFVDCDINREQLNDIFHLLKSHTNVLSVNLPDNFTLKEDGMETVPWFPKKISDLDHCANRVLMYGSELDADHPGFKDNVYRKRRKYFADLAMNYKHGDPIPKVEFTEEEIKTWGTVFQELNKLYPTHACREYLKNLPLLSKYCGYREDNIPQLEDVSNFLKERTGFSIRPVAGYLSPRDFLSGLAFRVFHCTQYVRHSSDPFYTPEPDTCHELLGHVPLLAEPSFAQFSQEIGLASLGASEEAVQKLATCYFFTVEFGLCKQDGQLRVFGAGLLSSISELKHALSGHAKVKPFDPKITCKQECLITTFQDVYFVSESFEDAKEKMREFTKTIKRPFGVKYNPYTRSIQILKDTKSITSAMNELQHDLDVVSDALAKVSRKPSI
Test: Biochemical in vitro assay using fluorescence readout (TPH1 enzyme activity)
Conditions: Table 1, mean where determined several times
How it was run: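 IC50 (mean of repeats) derived from 5-hydroxy-L-tryptophan fluorescence at 540 nm (300 nm excitation) relative to vehicle, after perchloric acid stop. Reaction: 60 min, 15° C., pH 7.6 Tris-HCl, 40 μM L-tryptophan, 100 μM 6-methyltetrahydropterine, DTT, catalase, with 40-80 nM purified full-length human TPH1 from E. coli.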

SMILES | IC50 [nM]
O=C(COc1ccc(N2CCCS2(=O)=O)nc1Cl)N1CCc2nc3n(c2[C@@H]1c1ccc(Cl)cc1F)CCS3 [Example 4.1.16, (S)-1-(5-(4-chloro-2-fluorophenyl)-2,3,7,8-tetrahydrothiazolo[2′,3′:2,3]imidazo[4,5-c]pyridin-6(5H)-yl)-2-((2-chloro-6-(1,1-dioxidoisothiazolidin-2-yl)pyridin-3-yl)oxy)ethanone] | 6
CCc1nc(C(=O)NC2CC2)ccc1OCC(=O)N1CCc2nc3n(c2C1c1ncc(C2CC2)cc1F)CCS3 (centres unmarked) [Example 4.2.1, N-cyclopropyl-5-(2-(5-(5-cyclopropyl-3-fluoropyridin-2-yl)-2,3,7,8-tetrahydrothiazolo[2′,3′:2,3]imidazo[4,5-c]pyridin-6(5H)-yl)-2-oxoethoxy)-6-ethylpicolinamide] | 8
CCc1nc(NS(C)(=O)=O)ccc1OCC(=O)N1CCc2nc3n(c2C1c1ncc(C2CC2)cc1F)CCS3 (centres unmarked) [Example 4.2.2, N-(5-(2-(5-(5-cyclopropyl-3-fluoropyridin-2-yl)-2,3,7,8-tetrahydrothiazolo[2′,3′:2,3]imidazo[4,5-c]pyridin-6(5H)-yl)-2-oxoethoxy)-6-ethylpyridin-2-yl)methanesulfonamide] | 8
CCc1nc(C(=O)NC2CC2)ccc1OCC(=O)N1CCc2nc3n(c2[C@@H]1c1ncc(C2CC2)cc1F)CCS3 [Example 4.2.3, (R)-N-cyclopropyl-5-(2-(5-(5-cyclopropyl-3-fluoropyridin-2-yl)-2,3,7,8-tetrahydrothiazolo[2′,3′:2,3]imidazo[4,5-c]pyridin-6(5H)-yl)-2-oxoethoxy)-6-ethylpicolinamide] | 16
CCc1nc(NS(C)(=O)=O)ccc1OCC(=O)N1CCc2nc3n(c2C1c1ccc(C2CC2)cc1F)CCS3 (centres unmarked) [Example 4.3.1, N-(5-(2-(5-(4-cyclopropyl-2-fluorophenyl)-2,3,7,8-tetrahydrothiazolo[2′,3′:2,3]imidazo[4,5-c]pyridin-6(5H)-yl)-2-oxoethoxy)-6-ethylpyridin-2-yl)methanesulfonamide] | 6
CS(=O)(=O)Nc1ccc(OCC(=O)N2CCc3nc4n(c3C2c2ccc(C3CC3)cc2F)CCS4)c(Cl)n1 (centres unmarked) [Example 4.3.2, N-(6-chloro-5-(2-(5-(4-cyclopropyl-2-fluorophenyl)-2,3,7,8-tetrahydrothiazolo[2′,3′:2,3]imidazo[4,5-c]pyridin-6(5H)-yl)-2-oxoethoxy)pyridin-2-yl)methanesulfonamide] | 10
O=C(NC1CC1)c1ccc(OCC(=O)N2CCc3nc4n(c3C2c2ccc(C3CC3)cc2F)CCS4)c(Cl)n1 (centres unmarked) [Example 4.3.3, 6-chloro-N-cyclopropyl-5-(2-(5-(4-cyclopropyl-2-fluorophenyl)-2,3,7,8-tetrahydrothiazolo[2′,3′:2,3]imidazo[4,5-c]pyridin-6(5H)-yl)-2-oxoethoxy)picolinamide] | 14
CCc1nc(NS(C)(=O)=O)ncc1OCC(=O)N1CCc2nc3n(c2C1c1ccc(C2CC2)cc1F)CCS3 (centres unmarked) [Example 4.3.4, N-(5-(2-(5-(4-cyclopropyl-2-fluorophenyl)-2,3,7,8-tetrahydrothiazolo[2′,3′:2,3]imidazo[4,5-c]pyridin-6(5H)-yl)-2-oxoethoxy)-4-ethylpyrimidin-2-yl)methanesulfonamide] | 25
CCc1nc(NS(C)(=O)=O)ccc1OCC(=O)N1CCc2nc3n(c2C1c1ccc(C)c(F)c1F)CCS3 (centres unmarked) [Example 4.4.1, N-(5-(2-(5-(2,3-difluoro-4-methylphenyl)-2,3,7,8-tetrahydrothiazolo[2′,3′:2,3]imidazo[4,5-c]pyridin-6(5H)-yl)-2-oxoethoxy)-6-ethylpyridin-2-yl)methanesulfonamide] | 6
Cc1ccc(C2c3c(nc4n3CCS4)CCN2C(=O)COc2ccc(C(=O)NC3CC3)nc2Cl)c(F)c1F (centres unmarked) [Example 4.4.2, 6-chloro-N-cyclopropyl-5-(2-(5-(2,3-difluoro-4-methylphenyl)-2,3,7,8-tetrahydrothiazolo[2′,3′:2,3]imidazo[4,5-c]pyridin-6(5H)-yl)-2-oxoethoxy)picolinamide] | 15
CCc1nc(NS(C)(=O)=O)ccc1OCC(=O)N1CCc2nc3n(c2C1c1sc(C)nc1C)CCS3 (centres unmarked) [Example 4.5.1, N-(5-(2-(5-(2,4-dimethylthiazol-5-yl)-2,3,7,8-tetrahydrothiazolo[2′,3′:2,3]imidazo[4,5-c]pyridin-6(5H)-yl)-2-oxoethoxy)-6-ethylpyridin-2-yl)methanesulfonamide] | 16
CCc1nc(N2CCCS2(=O)=O)ccc1OCC(=O)N1CCc2nc3n(c2C1c1sc(C)nc1C)CCS3 (centres unmarked) [Example 4.5.2, 1-(5-(2,4-dimethylthiazol-5-yl)-2,3,7,8-tetrahydrothiazolo[2′,3′:2,3]imidazo[4,5-c]pyridin-6(5H)-yl)-2-((6-(1,1-dioxidoisothiazolidin-2-yl)-2-ethylpyridin-3-yl)oxy)ethanone] | 10
CCc1nc(C(=O)NC2CC2)ccc1OCC(=O)N1CCc2nc3n(c2C1c1sc(C)nc1C)CCS3 (centres unmarked) [Example 4.5.3, N-cyclopropyl-5-(2-(5-(2,4-dimethylthiazol-5-yl)-2,3,7,8-tetrahydrothiazolo[2′,3′:2,3]imidazo[4,5-c]pyridin-6(5H)-yl)-2-oxoethoxy)-6-ethylpicolinamide] | 6
CN(C)C(=O)c1ccc(OCC(=O)N2CCc3nc4n(c3C2c2sccc2F)CCS4)c(Cl)n1 (centres unmarked) [Example 4.6.1, 6-chloro-5-(2-(5-(3-fluorothiophen-2-yl)-2,3,7,8-tetrahydrothiazolo[2′,3′:2,3]imidazo[4,5-c]pyridin-6(5H)-yl)-2-oxoethoxy)-N,N-dimethylpicolinamide] | 28
CS(=O)(=O)Nc1ccc(OCC(=O)N2CCc3nc4n(c3C2c2sccc2F)CCS4)c(Cl)n1 (centres unmarked) [Example 4.6.2, N-(6-chloro-5-(2-(5-(3-fluorothiophen-2-yl)-2,3,7,8-tetrahydrothiazolo[2′,3′:2,3]imidazo[4,5-c]pyridin-6(5H)-yl)-2-oxoethoxy)pyridin-2-yl)methanesulfonamide] | 58
CCc1nc(NS(C)(=O)=O)ccc1OCC(=O)N1CCc2nc3n(c2C1c1sccc1F)CCS3 (centres unmarked) [Example 4.6.3, N-(6-ethyl-5-(2-(5-(3-fluorothiophen-2-yl)-2,3,7,8-tetrahydrothiazolo[2′,3′:2,3]imidazo[4,5-c]pyridin-6(5H)-yl)-2-oxoethoxy)pyridin-2-yl)methanesulfonamide] | 19
CCc1nc(NS(C)(=O)=O)ccc1OCC(=O)N1CCc2nc3n(c2C1c1cc(F)c(C)cc1F)CCS3 (centres unmarked) [Example 4.7.1, N-(5-(2-(5-(2,5-difluoro-4-methylphenyl)-2,3,7,8-tetrahydrothiazolo[2′,3′:2,3]imidazo[4,5-c]pyridin-6(5H)-yl)-2-oxoethoxy)-6-ethylpyridin-2-yl)methanesulfonamide] | 6
CC(=O)N1CCn2c(nc3c2C(c2ccc(Cl)cc2F)N(C(=O)COc2ccc(N4CC(F)(F)C4)nc2Cl)CC3)C1 (centres unmarked) [Example 5.1.1, 1-(7-acetyl-1-(4-chloro-2-fluorophenyl)-3,4,6,7,8,9-hexahydropyrido[4′,3′:4,5]imida-zo[1,2-a]pyrazin-2(1H)-yl)-2-((2-chloro-6-(3,3-difluoroazetidin-1-yl)pyridin-3-yl)oxy)ethanone] | 7
CNC(=O)c1ccc(OCC(=O)N2CCc3nc4n(c3C2c2ccc(Cl)cc2F)CCN(C(C)=O)C4)c(Cl)n1 (centres unmarked) [Example 5.1.2, 5-(2-(7-acetyl-1-(4-chloro-2-fluorophenyl)-3,4,6,7,8,9-hexahydropyrido[4′,3′:4,5]imida-zo[1,2-a]pyrazin-2(1H)-yl)-2-oxoethoxy)-6-chloro-N-methylpicolinamide] | 13
CC(=O)N1CCn2c(nc3c2C(c2ccc(Cl)cc2F)N(C(=O)COc2ccc(C(=O)N(C)C)nc2Cl)CC3)C1 (centres unmarked) [Example 5.1.3, 5-(2-(7-acetyl-1-(4-chloro-2-fluorophenyl)-3,4,6,7,8,9-hexahydropyrido[4′,3′:4,5]imidazo[1,2-a]pyrazin-2(1H)-yl)-2-oxoethoxy)-6-chloro-N,N-dimethylpicolinamide] | 11
CN(C)C(=O)c1ccc(OCC(=O)N2CCc3nc4n(c3C2c2ccc(Cl)cc2F)CCN(C2CC2)C4)c(Cl)n1 (centres unmarked) [Example 5.1.4, 6-chloro-5-(2-(1-(4-chloro-2-fluorophenyl)-7-cyclopropyl-3,4,6,7,8,9-hexahydropyrido[4′,3′:4,5]imidazo[1,2-a]pyrazin-2(1H)-yl)-2-oxoethoxy)-N,N-dimethylpicolinamide] | 41
CCc1nc(C)ccc1OCC(=O)N1CCc2nc3n(c2C1c1ccc(C2CC2)cc1F)CCN(C(=O)OC(C)(C)C)C3 (centres unmarked) [Example 5.2.1, tert-butyl 1-(4-cyclopropyl-2-fluorophenyl)-2-(2-((2-ethyl-6-methylpyridin-3-yl)oxy)acetyl)-1,2,3,4,8,9-hexahydropyrido[4′,3′:4,5]imidazo[1,2-a]pyrazine-7(6H)-carboxylate] | 74
CC(C)(C)OC(=O)N1CCn2c(nc3c2C(c2ccc(C4CC4)cc2F)N(C(=O)COc2ccc(N4CCOCC4)cc2Cl)CC3)C1 (centres unmarked) [Example 5.2.2, tert-butyl 2-(2-(2-chloro-4-morpholinophenoxy)acetyl)-1-(4-cyclopropyl-2-fluorophenyl)-1,2,3,4,8,9-hexahydropyrido[4′,3′:4,5]imidazo[1,2-a]pyrazine-7(6H)-carboxylate] | 121
